Values quoted from earlier work as cited in patent US5739081A, “Water dispersible granules of liquid pesticides” (ICI Australia Operations Proprietary Ltd., priority 1992, dated 1998).
Converted amounts (≈) assume the structure as drawn. Where two headings read alike, the source gives them in different places.

| Molecule | Solubility in water (in water) | further results |
| --- | --- | --- |
| C#CCON=C1CC2CCC1(C)C2(C)C (racemic) [Heptopargil] | 1000 µg/mL (≈ 4870 µM) | – |
| CCCCOCN(C(=O)CCl)c1c(CC)cccc1CC [Butachlor] | 23 µg/mL (≈ 73.8 µM) | – |
| CCOP(=S)(NC(C)CC)Oc1cc(C)ccc1[N+](=O)[O-] (stereo not drawn) [Butamifos] | 5.1 µg/mL (≈ 15.3 µM) | – |
| CCSC(=O)N(CC(C)C)CC(C)C [Butylate] | 46 µg/mL (≈ 212 µM) | – |
| CCOP(=O)(OCC)OC(=CCl)c1ccc(Cl)cc1Cl [Chlorfenvinphos] | 145 µg/mL (≈ 403 µM) | – |
| CCOP(=S)(OCC)SCCl [Chlorimephos] | – | Solubility in water (water): 60 µg/mL (≈ 256 µM) |
| CC1(C)C(/C=C(\Cl)C(F)(F)F)C1C(=O)OC(C#N)c1cccc(Oc2ccccc2)c1 (stereo not drawn) [Cyhalothrin] | 0.003 µg/mL (≈ 0.00667 µM) | – |
| CCSCCSP(=O)(OC)OC [Demeton-S-methyl] | 3300 µg/mL (≈ 14300 µM) | – |
| CCOP(=S)(OCC)Oc1cc(C)nc(C(C)C)n1 [Diazinon] | – | Solubility in water (water): 40 µg/mL (≈ 131 µM) |
| CCOP(=S)(OCC)SCCSCC [Disulfoton] | 25 µg/mL (≈ 91.1 µM) | – |
| COP(=S)(OC)Oc1ccc([N+](=O)[O-])c(C)c1 [Fenitrophion] | 14 µg/mL (≈ 50.5 µM) | – |
| CC(Cc1ccc(C(C)(C)C)cc1)CN1C[C@@H](C)O[C@@H](C)C1 (stereo partly drawn) [Fenpropimorph] | 10 µg/mL (≈ 33 µM) | – |
| CCCCOC(=O)[C@@H](C)Oc1ccc(Oc2ccc(C(F)(F)F)cn2)cc1 [Fluazifop-P-butyl] | 1 µg/mL (≈ 2.61 µM) | – |
| COP(=O)(OC)OC1=C(Cl)C2C=CCC12 (stereo not drawn) [Heptenophos] | 2200 µg/mL (≈ 8780 µM) | – |
| CCOC(=O)/C=C(C)/C=C/CC(C)CCCC(C)C (stereo not drawn) [Hydroprene] | 0.54 µg/mL (≈ 2.03 µM) | – |
| CCOP(=S)(NC(C)C)Oc1ccccc1C(=O)OC(C)C (stereo not drawn) [Isofenphos] | 23.8 µg/mL (≈ 68.9 µM) | – |
| CC1(C)[C@H](C(=O)O[C@H](C#N)c2cccc(Oc3ccccc3)c2)[C@@H]1/C=C(\Cl)C(F)(F)F [Lambda-cyhalothrin] | 0.005 µg/mL (≈ 0.0111 µM) | – |
| CCOP(=O)(N=C1SCC(C)S1)OCC (stereo not drawn) [Mephosfolan] | 57 µg/mL (≈ 212 µM) | – |

| Molecule | Solubility in water (in water) | further results |
| --- | --- | --- |
| CCc1cccc(C)c1N(C(=O)CCl)C(C)COC (stereo not drawn) [Metolachlor] | 530 µg/mL (≈ 1870 µM) | – |
| CNC(=O)CSP(=O)(OC)OC [Omethoate] | 500 µg/mL (≈ 2350 µM) | – |
| CCOP(=S)(OCC)Oc1ccc([N+](=O)[O-])cc1 [Parathion] | 24 µg/mL (≈ 82.4 µM) | – |
| CCCCN(CC)C(=O)SCCC [Pebulate] | 60 µg/mL (≈ 295 µM) | – |
| CC1(C)C(C=C(Cl)Cl)C1C(=O)OCc1cccc(Oc2ccccc2)c1 (stereo not drawn) [Permethrin] | – | Solubility in water (water): 0.2 µg/mL (≈ 0.511 µM) |
| CCN(CC)c1nc(C)cc(OP(=S)(OC)OC)n1 [Pirimiphos-methyl] | 5 µg/mL (≈ 16.4 µM) | – |
| CCCSP(=O)(OCC)Oc1ccc(Br)cc1Cl (stereo not drawn) [Profenofos] | – | Solubility in water (water): 20 µg/mL (≈ 53.5 µM) |
| C#CCOS(=O)OC1CCCCC1Oc1ccc(C(C)(C)C)cc1 (stereo not drawn) [Propargite] | 1.9 µg/mL (≈ 5.42 µM) | – |
| CCNP(=S)(OC)O/C(C)=C/C(=O)OC(C)C (stereo not drawn) [Propetamphos] | 110 µg/mL (≈ 391 µM) | – |
| CCCC1COC(Cn2cncn2)(c2ccc(Cl)cc2Cl)O1 (stereo not drawn) [Propiconazole] | 110 µg/mL (≈ 321 µM) | – |
| CCCN(CCC)C(=O)SCc1ccccc1 [Prosulfocarb] | 13.2 µg/mL (≈ 52.5 µM) | – |
| CCCSP(=O)(OCC)Oc1cnn(-c2ccc(Cl)cc2)c1 (stereo not drawn) [Pyraclofos] | 33 µg/mL (≈ 91.5 µM) | – |
| CON=C(Cc1cccnc1)c1ccc(Cl)cc1Cl [Pyrifenox] | 115 µg/mL (≈ 390 µM) | – |
| CC(C)N(Cc1ccccc1)C(=O)C(C)(C)C [Tebutam] | – | Solubility in water (in water, in words): Almost Insoluble |
| CCN(CC)C(=O)SCc1ccc(Cl)cc1 [Thiobencarb] | 30 µg/mL (≈ 116 µM) | – |
| CCSCCSP(=S)(OC)OC [Thiometon] | 200 µg/mL (≈ 812 µM) | – |
| CCCCCCCCCCCCCN1CC(C)OC(C)C1 (stereo not drawn) [Tridemorph] | 11.7 µg/mL (≈ 39.3 µM) | – |
| Dinocap | – | Solubility in water (in water, in words): Sp. soluble |
